Test results taken from US20260061191A1, “Using Alternating Electric Fields to Increase Cell Membrane Permeability” (The Board of Trustees of the Leland Stanford Junior …, priority 2018, published 2026).
Each block holds one molecule with its values, some of them ahead of it.

Key:
[1] = system: human glioblastoma cells that have been modified to express luciferase
Protocol: U87-MG/eGFP-fLuc cells were seeded on Thermanox glass coverslips, allowed to settle and grow, and then subjected to either TTFields or no TTFields.
Bioluminescence imaging: For all bioluminescence work, we used genetically-modified GBM2, GBM39 and U87-MG whereby the glioblastoma cells were transfected with lentiviral vectors that expressed either firefly luciferase (fLuc for GBM39) or a fusion protein of GFP and firefly luciferase (GFP/fLuc for GBM2 and eGFP-fLuc for U87-MG) or a Renilla luciferase-Red Fluorescence protein fusion (RLuc-RL8 for KR158B).

[2] = system: MDA-MB-435 cells, wild type; assay: Intracellular accumulation of doxorubicin under alternating electric field; details: 150 kHz, 1.62 V/cm, 23 hours, then 10 μM doxorubicin for one hour with field; vs no field
Protocol: (§1) In this experiment, both wild type and doxorubicin resistant variants of MDA-MB-435 cells were treated with an alternating electric field at 150 kHz with a field strength of 1.62 V/cm for 23 hours. After this 23 hour period, doxorubicin at a concentration of 10 μM was added and incubated for one hour, during which time the alternating electric fields was continued. The intracellular accumulation of doxorubicin was then measured.

MDA-MB-235 cells = assay: Drug sensitivity / synergy with TTFields; format: cell-based
MES-SA cells = assay: Intracellular accumulation of doxorubicin under 150 kHz alternating electric field; details: 1.62 V/cm RMS, 24 hours, 10 μM doxorubicin for the last hour
Protocol: In this experiment, MES-SA cells were treated with an alternating electric field at 150 kHz with a field strength of 1.62 V/cm RMS for 24 hours. After the first 23 hours, doxorubicin at a concentration of 10 μM was added and incubated for one hour during which time the alternating electric fields was continued (to complete the 24 hour period). The intracellular accumulation of doxorubicin was then measured.

[3] = system: MDA-MB-435 cells, doxorubicin resistant; assay: Intracellular accumulation of doxorubicin under alternating electric field; details: 150 kHz, 1.62 V/cm, 23 hours, then 10 μM doxorubicin for one hour with field; vs no field
Protocol: as §1

U87-MG cells [4] = assay: Timing of permeability to 7-AAD after alternating electric field, flow cytometry; format: cell-based, human; details: 300 kHz, 1.62 V/cm RMS, 24 hours; sample incubated with 7-AAD while subjected to the field (added 15 minutes prior to cessation)
Protocol: FIG. 7D depicts the results of an experiment to test how quickly the permeability drops back down after cessation of the alternating electric fields. More specifically, 7-Aminoactinomycin D (7-AAD) is a fluorescent chemical compound with a strong affinity for DNA. […] 7-AAD was introduced into samples at five different times: 15 minutes prior to the cessation of the alternating electric field; immediately after cessation of the alternating electric field […]. In each case, the cells were incubated with 7-AAD for 30 minutes after introduction of the 7-AAD, followed by flow cytometry analysis of the percentage of cells with increased accumulation of the fluorescent 7-AAD for each of the different timings.

[5] = system: MDA-MB-435 human melanoma cell line cells; assay: Permeability of cell membranes to 7-AAD, flow cytometry; format: cell-based
Protocol: After this 15 minute period, alternating electric field application was terminated and the cells were incubated at room temperature for an additional 15 minutes.
After this 24 hour period, the alternating electric fields were turned off for 15 minutes, after which the 7-AAD was added. After waiting an additional 15 minutes, the percentage of cells with increased accumulation of the fluorescent 7-AAD was determined using flow cytometry.

U87-MG/GFP-Luc cells = assay: Drug sensitivity / synergy with TTFields; format: cell-based, human
GBM39 cells = assay: Drug sensitivity with TTFields; format: cell-based, human; details: TTFields for 3 days vs control without TTFields
human glioblastoma cells = assay: Growth inhibition by TTFields in conjunction with Withaferin A; format: cell-based; details: TTFields treatment in conjunction with Withaferin A
Description: In this figure, 5-ALA=5-aminolevulinic acid; Ethidium D=ethidium bromide; and FITC=fluorescein isothiocyanate.

GBM39/Luc cells = assay: Drug sensitivity / synergy with TTFields; format: cell-based, human
U87-MG/eGFP-fLuc cells [6] = assay: Annexin-V-APC binding (early apoptosis), fluorescence microscopy; format: cell-based, human; details: 21 μM, TTFields-unexposed samples
Protocol: To test if the imposition of TTFields affects cell membrane properties, and thus membrane permeability, the effect of TTFields on the behavior of fluorescently tagged reagents that bind to the cellular membrane was determined. Initially, the impact of TTFields on the binding of Annexin-V-APC to the membrane of U87-MG/eGFP-fLuc cells was measured. Annexin-V-APC binding is a signature of early apoptosis which is characterized by ruffling of the membrane.

glioblastoma patients = assay: Survival of glioblastoma patients treated with TTFields plus temozolomide; format: in vivo, human; details: TTFields plus temozolomide vs temozolomide alone, re-analysis of Ram et al.
Description: The treatment of glioblastoma (GBM) using alternating electric fields is a novel, validated therapy that has become an additional modality (after surgery chemoradiation and chemotherapy) for anti-cancer treatments. Intermediate frequency alternating electric fields (100-500 kHz) have been studied in detail. […] In the context of treating tumors, alternating electric fields at these frequencies are often referred to as “tumor treating fields” or “TTFields.”
Recurrence of GBM is inevitable and the median time to first recurrence despite standard therapy is approximately 7 months. […] TTFields compliance (≥75% vs. <75%) was an independent predictor of overall survival in the retrospective analysis of the full EF-14 trial dataset and the duration of use of TTFields was also found to affect overall survival. […] Namely, a correlation between the length of TTFields exposure and the duration of its effect on cell membrane permeability after cessation of TTFields was observed. At lengths of TTFields exposure of 0.5-3 h, the duration in BLI augmentation (compared to no TTFields conditions) lasted about 5 min. However, at TTFields exposures of 12-25 h, this difference in BLI between TTFields and no TTFields conditions lasted for more than 20 min.

U87-MG/eGFP-fLuc cells [7] = assay: Ethidium D uptake under TTFields; format: cell-based, human; details: 200 kHz TTFields vs no TTFields, p<0.0001
Description: Ethidium D permeates through both the plasma membrane and the nuclear membrane and intercalates into genomic DNA.

U87-MG cells [8] = assay: 5-ALA uptake (PpIX fluorescence), single U87-MG culture; format: cell-based, human
Protocol: Experiments were performed to determine the effects of TTFields on uptake of 5-ALA (as measured by PpIX accumulation and its resultant fluorescence) in glioblastoma cells. Because it is difficult to distinguish the margin between tumor and normal cells using the present 5-ALA bioassay, the measurement of PpIX fluorescence was used to address this issue. Investigations were run to determine whether permeation of 5-ALA through the cellular membrane and into the glioblastoma cells could be increased with TTFields exposure. U87-MG cells were exposed or unexposed to TTFields, each for durations of 6-24 h.
All monovariant statistical comparisons between no TTFields vs. TTFields samples done by Student's t-test for n=3 experiments per time point.

[9] = system: U87-MG cells on PCS-201 fibroblasts co-culture; assay: 5-ALA uptake (PpIX fluorescence), U87-MG GBM on PCS-201 fibroblast co-cultures; format: cell-based, human
[10] = molecular target: T1, purified firefly luciferase (Photinus pyralis, UniProt P08659); assay: Activity of purified firefly luciferase exposed to TTFields; format: biochemical; details: 200 kHz TTFields, 60 minutes after initiation of TTFields
T1 construct: purchased Sigma Aldrich Inc (St. Louis, MO) SRE0045-2MG

[11] = TTFields for 3 days vs control without TTFields

T1 sequence (P08659 whole entry): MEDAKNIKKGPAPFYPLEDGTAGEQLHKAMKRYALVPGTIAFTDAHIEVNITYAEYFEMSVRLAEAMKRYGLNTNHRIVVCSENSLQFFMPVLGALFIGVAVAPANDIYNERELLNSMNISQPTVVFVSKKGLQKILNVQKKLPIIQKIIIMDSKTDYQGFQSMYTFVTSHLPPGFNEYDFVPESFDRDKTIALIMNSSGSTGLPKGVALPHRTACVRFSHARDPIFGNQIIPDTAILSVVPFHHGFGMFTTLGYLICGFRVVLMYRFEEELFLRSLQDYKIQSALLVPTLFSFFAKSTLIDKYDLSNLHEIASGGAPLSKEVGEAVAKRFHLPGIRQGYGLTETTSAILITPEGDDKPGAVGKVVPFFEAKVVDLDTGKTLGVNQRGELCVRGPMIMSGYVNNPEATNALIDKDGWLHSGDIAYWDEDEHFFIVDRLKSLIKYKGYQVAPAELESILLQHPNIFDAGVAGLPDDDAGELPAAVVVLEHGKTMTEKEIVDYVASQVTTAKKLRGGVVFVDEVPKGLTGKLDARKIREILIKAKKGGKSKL

permeation of the substrates through the plasma membrane (greater bioluminescence) [1]: increased permeation
Molecule: Oc1ccc(Cc2nc3c(Cc4ccccc4)nc(-c4ccc(O)cc4)cn3c2O)cc1 [coelenterazine]

intracellular accumulation of doxorubicin [2]: increased | increase of intracellular accumulation of doxorubicin (MES-SA cells): more than 2 X | intracellular accumulation of doxorubicin [3]: increased
Molecule: COc1cccc2c1C(=O)c1c(O)c3c(c(O)c1C2=O)C[C@@](O)(C(=O)CO)C[C@@H]3O[C@H]1C[C@H](N)[C@H](O)[C@H](C)O1 [doxorubicin]
synergy of the combination with TTFields (MDA-MB-235 cells): Evidence of synergy | sensitivity of cells to various concentrations of drug (MDA-MB-235 cells; [11]): improves the sensitivity

Molecule: Cc1c2oc3c(C)c(N)cc(C(=O)N[C@@H]4C(=O)N[C@H](C(C)C)C(=O)N5CCC[C@H]5C(=O)N(C)CC(=O)N(C)[C@@H](C(C)C)C(=O)O[C@@H]4C)c3nc-2c(C(=O)N[C@@H]2C(=O)N[C@H](C(C)C)C(=O)N3CCC[C@H]3C(=O)N(C)CC(=O)N(C)[C@@H](C(C)C)C(=O)O[C@@H]2C)c(N)c1=O [7-AAD, 7-Aminoactinomycin D]
percentage of cells with increased accumulation of 7-AAD (U87-MG cells [4]): significant increase in accumulation | percentage of cells with increased accumulation of 7-AAD ([5]; 150 kHz, 1.62 V/cm, 24 hours, 7-AAD added 15 minutes after fields were turned off): ~20% | percentage of cells with increased accumulation of 7-AAD ([5]; 150 kHz, 1.62 V/cm, 24 hours, 7-AAD added for the last 15 minutes of the field): ~66% | percentage of cells with increased accumulation of 7-AAD ([5]; control, same conditions, alternating electric fields not applied): less than 5%

Molecule: O=NN(CCCl)C(=O)NC1CCCCC1 [Lomustine]
sensitivity of cells to various concentrations of drug (U87-MG/GFP-Luc cells; [11]): improves the sensitivity | sensitivity of cells to various concentrations of drug (pcGBM2/GFP-Luc cells; [11]): improves the sensitivity | sensitivity of cells to various concentrations of drug (GBM39 cells): improves the sensitivity

Molecule: CC1=C(CO)C(=O)O[C@@H]([C@@H](C)[C@H]2CC[C@H]3[C@@H]4C[C@H]5O[C@]56[C@@H](O)C=CC(=O)[C@]6(C)[C@H]4CC[C@]23C)C1 [Withaferin A]
synergy of the combination with TTFields (U87-MG/GFP-Luc cells): synergy was found | growth of human glioblastoma cells (human glioblastoma cells): synergistically inhibited the growth | synergy of the combination with TTFields (GBM39/Luc cells): synergy was found | synergy of the combination with TTFields (pcGBM2/GFP-Luc cells): synergy was found | Annexin-V-APC binding (positive control for apoptosis) (U87-MG/eGFP-fLuc cells [6]): could be visualized

Molecule: Cn1nnc2c(C(N)=O)ncn2c1=O [Temozolomide]
percent increase in overall survival (glioblastoma patients; after 1 year of TTFields exposure): 32% | percent increase in overall survival (glioblastoma patients; after 5 years of TTFields exposure): 551%

Molecule: CC[n+]1c(-c2ccccc2)c2cc(N)ccc2c2ccc(N)cc21 [ethidium D, ethidium bromide]
ethidium D uptake (U87-MG/eGFP-fLuc cells [7]): significantly increased

uptake of 5-ALA (PpIX fluorescence) (U87-MG cells [8]; 6 h of TTFields exposure vs no TTFields, p=0.047): significantly increased uptake | uptake of 5-ALA (PpIX fluorescence) (U87-MG cells [8]; 24 h of TTFields exposure vs no TTFields, p=0.011): increase was maintained | 5-ALA uptake in the GBM cells compared to the fibroblast cells (ratio of PpIX fluorescence intensity) ([9]; TTFields exposure (by 24 h, p=0.043) vs no TTFields): significantly increased | rate of PpIX fluorescence intensity increase ([9]; TTFields-exposed vs unexposed co-cultures, 2, 6 and 24 h, p<0.001): significantly augmented
Molecule: NCC(=O)CCC(=O)O [5-ALA, 5-aminolevulinic acid]

Molecule: CCc1c2c(nc3ccc(OC(=O)N4CCC(N5CCCCC5)CC4)cc13)-c1cc3c(c(=O)n1C2)COC(=O)[C@]3(O)CC [Irinotecan]
synergy of the combination with TTFields (GBM39/Luc cells): synergy was found | sensitivity of cells to various concentrations of drug (GBM39/Luc cells; [11]): improves the sensitivity

Molecule: firefly luciferase: purified firefly luciferase (SRE0045-2MG) purchased from Sigma Aldrich
loss in enzymatic activity [10]: > 1000 fold
